Patent US12448369B2 (Edgewise Therapeutics, Inc., priority 2023, dated 2025)

Molecular target: T1, Porcine ventricle myofibrils (ventricular myosin ATPase) (Sus scrofa, UniProt P79293)
T1 construct: Myofibrils from porcine cardiac muscle was isolated from the left ventricle of Yucatan minipigs; tissue Exemplar Genetics; host or cells: left ventricle of Yucatan minipigs, myofibrils prepared in house
Assay: Myofibril ATPase assay, porcine ventricle myofibrils
Format: biochemical, porcine (Yucatan minipigs)
Conditions: Y75 value (no ‡ mark); porcine ventricle myofibrils
In short: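 Read-out: A340 kinetic, NADH consumption coupled to ADP via PK-LDH, 75 min. Yucatan minipig LV myofibrils, pCa buffer (PIPES/CaCl2/EGTA, pH 7.0). Linear-regression slope (mAU/min), vehicle = 100%, 4PL fit; Y75 or Y125 reported.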

T1 sequence (P79293 whole entry): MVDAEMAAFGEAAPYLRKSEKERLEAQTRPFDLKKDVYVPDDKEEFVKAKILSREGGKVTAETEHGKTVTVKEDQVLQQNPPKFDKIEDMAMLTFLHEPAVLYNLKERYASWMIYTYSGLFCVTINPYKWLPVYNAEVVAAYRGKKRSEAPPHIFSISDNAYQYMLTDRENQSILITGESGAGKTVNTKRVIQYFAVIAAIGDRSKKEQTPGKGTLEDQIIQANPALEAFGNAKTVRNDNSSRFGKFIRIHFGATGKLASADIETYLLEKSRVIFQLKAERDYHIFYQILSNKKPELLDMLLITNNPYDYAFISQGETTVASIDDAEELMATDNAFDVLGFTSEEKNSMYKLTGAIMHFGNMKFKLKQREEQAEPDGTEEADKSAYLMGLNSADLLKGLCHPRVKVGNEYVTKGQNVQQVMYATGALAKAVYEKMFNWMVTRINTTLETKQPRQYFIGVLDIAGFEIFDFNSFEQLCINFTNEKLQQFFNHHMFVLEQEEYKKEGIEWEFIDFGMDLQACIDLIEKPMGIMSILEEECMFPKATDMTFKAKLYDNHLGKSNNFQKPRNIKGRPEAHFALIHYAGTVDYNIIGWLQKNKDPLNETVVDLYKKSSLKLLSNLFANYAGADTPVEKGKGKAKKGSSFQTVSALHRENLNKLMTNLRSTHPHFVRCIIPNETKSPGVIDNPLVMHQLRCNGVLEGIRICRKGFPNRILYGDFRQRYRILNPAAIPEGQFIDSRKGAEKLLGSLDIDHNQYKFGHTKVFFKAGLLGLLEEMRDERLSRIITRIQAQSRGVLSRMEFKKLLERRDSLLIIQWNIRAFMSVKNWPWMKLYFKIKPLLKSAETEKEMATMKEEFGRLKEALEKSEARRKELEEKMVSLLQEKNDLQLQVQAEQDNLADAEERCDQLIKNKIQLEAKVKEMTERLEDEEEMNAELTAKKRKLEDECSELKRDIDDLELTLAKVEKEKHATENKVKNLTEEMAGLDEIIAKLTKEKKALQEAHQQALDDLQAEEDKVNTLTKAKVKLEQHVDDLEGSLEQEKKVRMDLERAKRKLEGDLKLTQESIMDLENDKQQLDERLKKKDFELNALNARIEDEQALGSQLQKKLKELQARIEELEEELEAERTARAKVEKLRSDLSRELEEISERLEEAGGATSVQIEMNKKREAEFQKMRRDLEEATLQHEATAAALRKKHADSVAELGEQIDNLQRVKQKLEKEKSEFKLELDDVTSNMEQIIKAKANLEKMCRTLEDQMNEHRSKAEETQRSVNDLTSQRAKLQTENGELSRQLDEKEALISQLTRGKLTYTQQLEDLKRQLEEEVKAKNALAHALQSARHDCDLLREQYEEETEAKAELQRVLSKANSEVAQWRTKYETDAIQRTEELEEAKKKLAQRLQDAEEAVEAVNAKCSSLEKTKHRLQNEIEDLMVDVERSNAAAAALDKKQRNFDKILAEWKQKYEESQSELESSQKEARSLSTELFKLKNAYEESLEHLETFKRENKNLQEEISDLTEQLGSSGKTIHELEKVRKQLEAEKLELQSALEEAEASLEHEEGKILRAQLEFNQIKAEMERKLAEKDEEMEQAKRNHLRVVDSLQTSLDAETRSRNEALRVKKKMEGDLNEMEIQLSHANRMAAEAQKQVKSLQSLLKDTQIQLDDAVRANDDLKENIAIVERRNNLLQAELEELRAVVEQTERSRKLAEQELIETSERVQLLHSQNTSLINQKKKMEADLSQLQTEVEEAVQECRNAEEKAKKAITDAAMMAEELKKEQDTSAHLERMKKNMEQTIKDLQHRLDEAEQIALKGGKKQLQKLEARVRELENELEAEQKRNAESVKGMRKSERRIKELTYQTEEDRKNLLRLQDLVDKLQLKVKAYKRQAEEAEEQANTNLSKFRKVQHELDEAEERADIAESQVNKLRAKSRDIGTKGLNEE

Row | SMILES | Ventricular EC25
1 | C[C@@H](NC(=O)Cc1cc2c(C#N)cccc2[nH]c1=O)c1ncc(C#N)cn1 (single isomer, unassigned) [compound 2037] | 5310 nM
2 | Cc1c(C(F)(F)C(=O)N[C@@H](C)c2ncc(F)cc2F)c(=O)[nH]c2ccc(F)cc12 (single isomer, unassigned) [compound 4820] | 610 nM
3 | Cc1c(C(F)(F)C(=O)N[C@@H]2COc3cc(C#N)cc(F)c32)c(=O)[nH]c2ccc(F)cc12 (single isomer, unassigned) [compound 2553] | 34880 nM
4 | Cc1c(C(F)(F)C(=O)N[C@@H](C)c2ncc(C#N)cc2F)c(=O)[nH]c2cccc(C#N)c12 (single isomer, unassigned) [compound 2502] | 200 nM
5 | C[C@H](NC(=O)Cc1c(C(F)(F)F)c2cc(F)ccc2[nH]c1=O)c1ccc(F)cc1F [compound 115] | 320 nM
6 | COc1ccc2[nH]c(=O)c(CC(=O)N[C@@H](C)c3ncc(F)cc3F)cc2c1C (single isomer, unassigned) [compound 80] | 100000 nM
7 | C[C@H](NC(=O)[C@H](C)c1cc2c(Cl)c(O)ccc2[nH]c1=O)c1ccc(F)cc1F (single isomer, unassigned) [compound 86] | 100000 nM
8 | C[C@H](NC(=O)Cc1c(C2CC2)c2c(F)c(F)ccc2[nH]c1=O)c1ccc(C#N)cn1 [compound 26] | 1400 nM
9 | Cc1c(C(F)(F)C(=O)N[C@@H](C)c2cnc(C#N)cn2)c(=O)[nH]c2ccc(F)cc12 (single isomer, unassigned) [compound 4828] | 1130 nM
10 | Cc1c(CC(=O)N[C@@H](C)c2ncc(C#N)cc2F)c(=O)[nH]c2cccc(C#N)c12 [compound 1081] | 280 nM
11 | C[C@@H](NC(=O)C(F)(F)c1cc2c(F)c(F)ccc2[nH]c1=O)c1nccc(C#N)n1 (single isomer, unassigned) [compound 2561] | 790 nM
12 | Cc1c(C2(C(=O)N[C@@H](C)c3ncc(C#N)cc3F)CC2)c(=O)[nH]c2ccc(F)c(C(F)(F)F)c12 (single isomer, unassigned) [compound 4802] | 1000 nM
13 | Cc1c(CC(=O)N[C@@H](C)c2ccc(C#N)nn2)c(=O)[nH]c2ccc(F)c(C3CC3)c12 (single isomer, unassigned) [compound 2058] | 68080 nM
14 | Cc1c(CC(=O)N[C@@H](CO)c2ccc(F)cc2F)c(=O)[nH]c2cccc(C#N)c12 (single isomer, unassigned) [compound 90] | 100000 nM
15 | C[C@H](NC(=O)[C@@H](C)c1c(C(F)(F)F)c2c(F)cccc2[nH]c1=O)c1ccc(F)cc1F (single isomer, unassigned) [compound 97] | 5340 nM
16 | Cc1c(C(F)(F)C(=O)N[C@H](C)c2cccc(C#N)n2)c(=O)[nH]c2ccc(F)cc12 (single isomer, unassigned) [compound 2565] | 100000 nM
17 | Cc1c(CC(=O)N[C@H](C)c2ccc(C#N)cn2)c(=O)[nH]c2cc(F)ccc12 [compound 1072] | 36860 nM
18 | Cc1c(C2(C(=O)N[C@H](C)c3ncc(C#N)cn3)CC2)c(=O)[nH]c2ccc(F)cc12 (single isomer, unassigned) [compound 2590] | 3410 nM

Tested on: Porcine atria myofibrils (atrial myosin ATPase)
Assay: Myofibril ATPase assay, porcine atria myofibrils
Format: biochemical
Conditions: Y75 value (no ‡ mark); porcine atria myofibrils
In short: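 Porcine atrial myofibrils were tested in a PK/LDH-coupled system where ADP from myosin ATPase drives NADH oxidation. Absorbance at 340 nm was read every 1.5-2 min for 75 min and slopes were normalized to vehicle wells. A 4-parameter logistic fit gave Y75 (25% inhibition) or Y125 (activation) concentrations.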

Row | SMILES | Atrial EC25
19 | C[C@@H](NC(=O)Cc1cc2c(C#N)cccc2[nH]c1=O)c1ncc(C#N)cn1 (single isomer, unassigned) [compound 2037] | 2880 nM
20 | Cc1c(C(F)(F)C(=O)N[C@@H](C)c2ncc(F)cc2F)c(=O)[nH]c2ccc(F)cc12 (single isomer, unassigned) [compound 4820] | 120 nM
21 | Cc1c(C(F)(F)C(=O)N[C@@H]2COc3cc(C#N)cc(F)c32)c(=O)[nH]c2ccc(F)cc12 (single isomer, unassigned) [compound 2553] | 510 nM
22 | Cc1c(C(F)(F)C(=O)N[C@@H](C)c2ncc(C#N)cc2F)c(=O)[nH]c2cccc(C#N)c12 (single isomer, unassigned) [compound 2502] | 90 nM
23 | C[C@H](NC(=O)Cc1c(C(F)(F)F)c2cc(F)ccc2[nH]c1=O)c1ccc(F)cc1F [compound 115] | 50 nM
24 | COc1ccc2[nH]c(=O)c(CC(=O)N[C@@H](C)c3ncc(F)cc3F)cc2c1C (single isomer, unassigned) [compound 80] | 100000 nM
25 | C[C@H](NC(=O)[C@H](C)c1cc2c(Cl)c(O)ccc2[nH]c1=O)c1ccc(F)cc1F (single isomer, unassigned) [compound 86] | 100000 nM
26 | C[C@H](NC(=O)Cc1c(C2CC2)c2c(F)c(F)ccc2[nH]c1=O)c1ccc(C#N)cn1 [compound 26] | 6130 nM
27 | Cc1c(C(F)(F)C(=O)N[C@@H](C)c2cnc(C#N)cn2)c(=O)[nH]c2ccc(F)cc12 (single isomer, unassigned) [compound 4828] | 300 nM
28 | Cc1c(CC(=O)N[C@@H](C)c2ncc(C#N)cc2F)c(=O)[nH]c2cccc(C#N)c12 [compound 1081] | 120 nM
29 | C[C@@H](NC(=O)C(F)(F)c1cc2c(F)c(F)ccc2[nH]c1=O)c1nccc(C#N)n1 (single isomer, unassigned) [compound 2561] | 230 nM
30 | Cc1c(C2(C(=O)N[C@@H](C)c3ncc(C#N)cc3F)CC2)c(=O)[nH]c2ccc(F)c(C(F)(F)F)c12 (single isomer, unassigned) [compound 4802] | 200 nM
31 | Cc1c(CC(=O)N[C@@H](C)c2ccc(C#N)nn2)c(=O)[nH]c2ccc(F)c(C3CC3)c12 (single isomer, unassigned) [compound 2058] | 100000 nM
32 | Cc1c(CC(=O)N[C@@H](CO)c2ccc(F)cc2F)c(=O)[nH]c2cccc(C#N)c12 (single isomer, unassigned) [compound 90] | 23510 nM
33 | C[C@H](NC(=O)[C@@H](C)c1c(C(F)(F)F)c2c(F)cccc2[nH]c1=O)c1ccc(F)cc1F (single isomer, unassigned) [compound 97] | 190 nM
34 | Cc1c(C(F)(F)C(=O)N[C@H](C)c2cccc(C#N)n2)c(=O)[nH]c2ccc(F)cc12 (single isomer, unassigned) [compound 2565] | 14390 nM
35 | Cc1c(CC(=O)N[C@H](C)c2ccc(C#N)cn2)c(=O)[nH]c2cc(F)ccc12 [compound 1072] | 17570 nM
36 | Cc1c(C2(C(=O)N[C@H](C)c3ncc(C#N)cn3)CC2)c(=O)[nH]c2ccc(F)cc12 (single isomer, unassigned) [compound 2590] | 430 nM

Tested on: Rabbit Psoas myofibrils (skeletal myosin ATPase)
Assay: Myofibril ATPase assay, rabbit psoas (skeletal) myofibrils
Format: biochemical
Conditions: Y75 value (no ‡ mark); rabbit psoas myofibrils
In short: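 ATPase activity of Triton-washed myofibrils was measured by PK/LDH coupling, following NADH loss at 340 nm every 1.5–2 min for 75 min in PIPES/Ca/EGTA buffer at pH 7.0. Slopes, normalized to vehicle (100%), were fitted to a 4-parameter logistic model. Values are Y75 (25% inhibition) or Y125 (activators).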

Row | SMILES | Skeletal EC25
37 | C[C@@H](NC(=O)Cc1cc2c(C#N)cccc2[nH]c1=O)c1ncc(C#N)cn1 (single isomer, unassigned) [compound 2037] | 790 nM
38 | Cc1c(C(F)(F)C(=O)N[C@@H](C)c2ncc(F)cc2F)c(=O)[nH]c2ccc(F)cc12 (single isomer, unassigned) [compound 4820] | 110 nM
39 | Cc1c(C(F)(F)C(=O)N[C@@H]2COc3cc(C#N)cc(F)c32)c(=O)[nH]c2ccc(F)cc12 (single isomer, unassigned) [compound 2553] | 790 nM
40 | Cc1c(C(F)(F)C(=O)N[C@@H](C)c2ncc(C#N)cc2F)c(=O)[nH]c2cccc(C#N)c12 (single isomer, unassigned) [compound 2502] | 30 nM
41 | C[C@H](NC(=O)Cc1c(C(F)(F)F)c2cc(F)ccc2[nH]c1=O)c1ccc(F)cc1F [compound 115] | 20 nM
42 | COc1ccc2[nH]c(=O)c(CC(=O)N[C@@H](C)c3ncc(F)cc3F)cc2c1C (single isomer, unassigned) [compound 80] | 18540 nM
43 | C[C@H](NC(=O)[C@H](C)c1cc2c(Cl)c(O)ccc2[nH]c1=O)c1ccc(F)cc1F (single isomer, unassigned) [compound 86] | 100000 nM
44 | C[C@H](NC(=O)Cc1c(C2CC2)c2c(F)c(F)ccc2[nH]c1=O)c1ccc(C#N)cn1 [compound 26] | 210 nM
45 | Cc1c(C(F)(F)C(=O)N[C@@H](C)c2cnc(C#N)cn2)c(=O)[nH]c2ccc(F)cc12 (single isomer, unassigned) [compound 4828] | 240 nM
46 | Cc1c(CC(=O)N[C@@H](C)c2ncc(C#N)cc2F)c(=O)[nH]c2cccc(C#N)c12 [compound 1081] | 30 nM
47 | C[C@@H](NC(=O)C(F)(F)c1cc2c(F)c(F)ccc2[nH]c1=O)c1nccc(C#N)n1 (single isomer, unassigned) [compound 2561] | 250 nM
48 | Cc1c(C2(C(=O)N[C@@H](C)c3ncc(C#N)cc3F)CC2)c(=O)[nH]c2ccc(F)c(C(F)(F)F)c12 (single isomer, unassigned) [compound 4802] | 140 nM
49 | Cc1c(CC(=O)N[C@@H](C)c2ccc(C#N)nn2)c(=O)[nH]c2ccc(F)c(C3CC3)c12 (single isomer, unassigned) [compound 2058] | 3150 nM
50 | Cc1c(CC(=O)N[C@@H](CO)c2ccc(F)cc2F)c(=O)[nH]c2cccc(C#N)c12 (single isomer, unassigned) [compound 90] | 1260 nM
51 | C[C@H](NC(=O)[C@@H](C)c1c(C(F)(F)F)c2c(F)cccc2[nH]c1=O)c1ccc(F)cc1F (single isomer, unassigned) [compound 97] | 230 nM
52 | Cc1c(C(F)(F)C(=O)N[C@H](C)c2cccc(C#N)n2)c(=O)[nH]c2ccc(F)cc12 (single isomer, unassigned) [compound 2565] | 100000 nM
53 | Cc1c(CC(=O)N[C@H](C)c2ccc(C#N)cn2)c(=O)[nH]c2cc(F)ccc12 [compound 1072] | 100000 nM
54 | Cc1c(C2(C(=O)N[C@H](C)c3ncc(C#N)cn3)CC2)c(=O)[nH]c2ccc(F)cc12 (single isomer, unassigned) [compound 2590] | 1300 nM
